{
  "source": "patent US20250280826A1",
  "about": "“PLANT GROWTH PROMOTER” (KAO CORPORATION, priority 2022, published 2025)",
  "key": {"soybean [1]": {"system": "soybean", "test": "Example 4: soybean yield-enhancing effect in field (dry grain mass)", "type": "in vivo", "conditions": "ascorbic acid 1,500 ppm, one foliar spray, 6.7 mL per plant, day 75 after sowing", "experimental": "The influence of foliar spray of a composition containing 1 500 ppm ascorbic acid on soybean yield was evaluated. Foliar spray was carried out only once, and types of test plots were examined (Table 5). The cultivation of soybean was carried out in a field in Tochigi Prefecture, and the soybean cultivar used was “Sato no Hohoemi.” Of the field, a ridge with a width of 2 m excluding the perimeter was used as one plot, and foliar spray treatment was carried out. 3 plot tests were carried out per test plot. An average of 10 plants were cultivated in the range of 2 m, which was set as one plot. In addition to the reagents mentioned in Example 2, polyoxyethylene lauryl ether was used as a nonionic surfactant. Further, the urea, potassium dihydrogen phosphate, sodium sulfite, glutathione, and EDTA used were those manufactured by FUJIFILM Wako Pure Chemical Corporation. The reagents were dissolved in tap water or deionized water to prepare spraying solutions. By using a battery-driven atomizer (GT-5HS, Koshin Ltd.), 6.7 mL of the ascorbic acid aqueous solution per plant was sprayed over the entire soybean plant body. […] The dry grain mass was measured as yield data. After calculating the average grain weight of each plant in one plot, the mean and the standard deviation for the eight plots were calculated (FIG. 9)."}, "soybean [2]": {"system": "soybean", "test": "Example 2: soybean nodule weight one week after foliar spray", "type": "in vivo", "experimental": "Medium-term fertilizer effect type culture soil (Takii hydrous cell medium-term fertilizer effect type, Takii & Co., Ltd.) and vermiculite grains (Akagi-Engei Co., Ltd.) were mixed at a volume ratio of 1:1, and the soil was placed in a polypot (diameter: 10.5 cm, height: 9 cm). The soybean seeds used were “Enrei” (purchased from Nikko Seed Co. Ltd.). After tap water was supplied in an amount of 250 mL per pot, 2 seeds per pot were each sown at a depth of from about 1 to 2 cm from the soil surface. The number of repeats in each test plot was 6 (n=6).\n1.5% agar (Wako Pure Chemical Industries, Ltd.) was added to Yeast-Mannitol (YM) medium (0.5 g of K2HPO4, 0.2 g of MgSO4-7H2O, 0.1 g of NaCl, 0.4 g of yeast extract, 10 g of mannitol, and 1 L of distilled water (pH: 6.8)) to prepare a solid medium, and a soybean Rhizobium (Bradyrhizobium japonicum) NBRC14783T strain was grown on the solid medium. A platinum loop of the grown Rhizobium was taken and inoculated in 50 mL of YM liquid medium in a Sakaguchi flask with a volume of 500 mL, and shake-cultured at 30° C. for about 36 hours. A Rhizobium culture solution whose value of turbidity OD600 of bacterial cells was about 0.3 was prepared. […]\nThe mean and the standard deviation were calculated from the data of four repeats, excluding the highest and the lowest values from the six repeats in each test plot."}},
  "data": [
    {"compound": "O=C1O[C@H]([C@@H](O)CO)C(O)=C1O", "note": "[ascorbic acid, (R)-3,4-dihydroxy-5-((S)-1,2-dihydroxyethyl)furan-2(5H)-one]", "values": [
      {"measurement": "effects of tap water and deionized water on seed weight", "setting": "soybean [1]", "value": "different from each other"},
      {"measurement": "nodule weight", "setting": "soybean [2]; ascorbic acid 1,500 ppm dissolved in deionized water, soybean early growth stage", "value": "increased"},
      {"measurement": "application effect of ascorbic acid (nodule weight)", "setting": "soybean [2]; ascorbic acid 1,500 ppm dissolved in tap water", "value": "tended to decrease"}
    ]}
  ]
}
